From paper PMC6440977, “Nucleoside analogue activators of cyclic AMP-independent protein kinase A of Trypanosoma” (Nature Communications, 2019) come the findings set out here.

Values joined by “and” are separate entries in the source; they are usually repeats but may differ in a detail not shown here. Identical values can stand only once. “Also recorded” adds a separate entry of the source. Like-named read-outs stand apart in the source and are kept apart here.

By Kd is commonly meant the concentration at which binding is half-saturated. In general, EC50 refers to the concentration needed to bring the measured effect to its halfway point. As usually defined, the IC50 is the concentration at which inhibition is half-maximal.

The target of one assay is T. brucei PKAR(199–499) (Trypanosoma brucei, UniProt Q9GU80). In words: biochemical. It is filed as binding. Further details: Thermodynamics (ITC) -TΔS / Thermodynamics (ITC) ΔG / Thermodynamics (ITC) ΔH: unit: kcal/mol.
The target in another assay is T. brucei PKA (Trypanosoma brucei brucei, UniProt Q9GU80). Put plainly: In vivo PKA reporter assay (VASP Ser-157 phosphorylation, western blot).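 For % VASP phosphorylation: Phosphorylated VASP as percent of total VASP band signal.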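 For all read-outs here: T. brucei cells expressing human VASP as heterologous PKA substrate, compound exposure at 37 °C, western blot of phospho (50 kDa) versus unphosphorylated (46 kDa) VASP band.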 It counts as cell-based. As to conditions: for EC50: read-out: EC50 in vivo PKA assay, VASP reporter, 15 min treatment, mean ± SD; for % VASP phosphorylation: CpdA 10 µM, replicates; for effect on in vivo PKA activity (VASP phosphorylation), in words: wild type background. A general note: A reporter such as luciferase makes a cellular process visible.

The subject of assay [1] is T. brucei ∆pkar/∆pkar (pkar KO) cells. In words: microbe, parasite or virus in culture. It is filed as cell-based, Trypanosoma brucei. Particulars: Trypanosoma brucei, 72 h, read-out: IC50 growth pkar KO.
For the next assay, the system named is T. brucei BSF cells (WT). Put plainly: Alamar blue cell viability assay, wild type.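 Note: trypanosomes seeded at 5×10^3 per ml and grown 72 h with compound, then resazurin 0.5 mM added for 4 h as the viability read-out.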 As to conditions: Trypanosoma brucei, 72 h, read-out: IC50 growth WT. Background: The colour change of resazurin is a common sign of viable cells or microbes.
Assay [2] has as its target T. brucei PKAR-PKAC1 holoenzyme (Trypanosoma brucei, UniProt Q9GU80). Put plainly: biochemical. It counts as biochemical. As to conditions: for In vitro kinase assay: technical replicates.
The next assay deals with T1, human PKARIα (Homo sapiens, UniProt P10644).
T1 construct: The full length ORFs (amplified with primers introducing the respective); 6xHis followed by TEV site (N); made in house; host or cells: E. coli Rosetta D3
In words: Binding by isothermal titration calorimetry (ITC). A general note: Isothermal titration calorimetry measures the heat released or taken up as one component is titrated into another.

The next assay concerns intracellular cAMP. In words: Cyclic AMP measurement (intracellular cAMP content). It is filed as cell-based, Trypanosoma brucei. Particulars: for pmol cAMP / 10^9 cells: independent replicates.
The subject of assay [3] is cAMP release into the medium. In words: Fraction of cAMP in cell supernatant versus total cell lysate. Particulars: CpdA treatment 10 µM, 15 min.
For assay [4], the system named is T. brucei PKA holoenzyme (PKAR-Ty1). It is filed as biochemical, Trypanosoma brucei. As to conditions: control without cyclic nucleotide, 5 µM PKI(5-24).
For assay [5], the system named is T. brucei PKA holoenzyme (Ty1-PKAC1). It is filed as biochemical, Trypanosoma brucei. As to conditions: for in vitro kinase assay [CPM] / in vitro kinase assay [CPM], PKI: 5 µM PKI(5-24); for in vitro kinase assay [CPM], PKI: control without cyclic nucleotide.
Assay [6] concerns T. brucei PKA holoenzyme (HA-PKAC2). It is filed as biochemical, Trypanosoma brucei. As to conditions: control without cyclic nucleotide, 5 µM PKI(5-24).

Chain of T. brucei PKA (Q38DS1 entry or part of it): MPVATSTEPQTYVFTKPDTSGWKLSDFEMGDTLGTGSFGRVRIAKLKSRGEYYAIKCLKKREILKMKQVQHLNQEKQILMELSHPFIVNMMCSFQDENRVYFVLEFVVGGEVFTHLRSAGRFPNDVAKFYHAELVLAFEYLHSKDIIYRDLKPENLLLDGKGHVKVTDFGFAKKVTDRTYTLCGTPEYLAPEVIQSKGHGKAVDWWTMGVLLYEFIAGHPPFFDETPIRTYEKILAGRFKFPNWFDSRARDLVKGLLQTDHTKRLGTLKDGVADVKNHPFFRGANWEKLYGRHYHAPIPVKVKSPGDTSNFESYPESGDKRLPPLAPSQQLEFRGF
Chain of T. brucei PKA (Q38DR5 entry or part of it, further chain): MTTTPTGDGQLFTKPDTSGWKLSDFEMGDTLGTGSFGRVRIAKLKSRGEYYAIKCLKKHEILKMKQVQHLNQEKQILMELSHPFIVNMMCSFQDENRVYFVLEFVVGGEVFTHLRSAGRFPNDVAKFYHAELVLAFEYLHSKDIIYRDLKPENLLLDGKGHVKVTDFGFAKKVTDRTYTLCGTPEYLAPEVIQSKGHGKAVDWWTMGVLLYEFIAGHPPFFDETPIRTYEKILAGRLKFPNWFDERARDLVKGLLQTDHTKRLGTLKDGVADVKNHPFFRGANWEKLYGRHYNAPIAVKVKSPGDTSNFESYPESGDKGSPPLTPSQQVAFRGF
Chain of T. brucei PKA (Q9GU80 entry or part of it): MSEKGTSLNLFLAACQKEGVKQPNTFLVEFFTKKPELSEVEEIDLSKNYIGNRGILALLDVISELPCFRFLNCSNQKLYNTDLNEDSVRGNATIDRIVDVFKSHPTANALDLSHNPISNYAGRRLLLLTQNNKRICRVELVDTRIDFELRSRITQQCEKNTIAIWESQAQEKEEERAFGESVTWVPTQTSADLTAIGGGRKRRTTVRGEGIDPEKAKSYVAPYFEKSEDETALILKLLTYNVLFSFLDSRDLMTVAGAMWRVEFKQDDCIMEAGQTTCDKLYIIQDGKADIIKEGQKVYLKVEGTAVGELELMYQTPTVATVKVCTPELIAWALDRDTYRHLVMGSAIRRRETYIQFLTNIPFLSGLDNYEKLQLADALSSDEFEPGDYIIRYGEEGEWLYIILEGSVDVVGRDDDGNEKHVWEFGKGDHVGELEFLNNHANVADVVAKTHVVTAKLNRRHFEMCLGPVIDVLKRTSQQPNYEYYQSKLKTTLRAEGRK
Chain of T. brucei PKAR-PKAC1 holoenzyme (Q38DR5 entry or part of it): as the sequence (Q38DR5 entry or part of it, further chain) above
Chain of T. brucei PKAR(199–499) (Q9GU80 entry or part of it): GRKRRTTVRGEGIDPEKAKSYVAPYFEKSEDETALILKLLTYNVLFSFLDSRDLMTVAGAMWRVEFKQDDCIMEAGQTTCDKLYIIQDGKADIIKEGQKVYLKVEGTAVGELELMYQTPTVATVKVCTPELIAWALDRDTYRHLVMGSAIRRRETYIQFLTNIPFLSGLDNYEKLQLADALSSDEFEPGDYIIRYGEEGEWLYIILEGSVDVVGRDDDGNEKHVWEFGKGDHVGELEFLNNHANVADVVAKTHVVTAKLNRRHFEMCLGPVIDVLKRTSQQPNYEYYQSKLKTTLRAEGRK
T1 sequence (P10644 whole entry): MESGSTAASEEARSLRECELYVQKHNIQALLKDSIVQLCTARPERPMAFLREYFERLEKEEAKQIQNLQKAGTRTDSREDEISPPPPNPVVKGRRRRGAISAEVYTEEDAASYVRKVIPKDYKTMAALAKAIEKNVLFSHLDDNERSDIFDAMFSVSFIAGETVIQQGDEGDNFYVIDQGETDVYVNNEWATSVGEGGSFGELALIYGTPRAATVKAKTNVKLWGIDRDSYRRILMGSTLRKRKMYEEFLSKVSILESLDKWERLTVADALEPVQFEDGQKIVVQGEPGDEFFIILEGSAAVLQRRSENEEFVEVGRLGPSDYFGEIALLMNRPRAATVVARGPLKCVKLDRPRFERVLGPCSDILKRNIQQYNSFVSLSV

In the case of `Nc1ncnc2c1c(I)cn2[C@@H]1O[C@H](CO)[C@@H](O)[C@H]1O` [5-I-Tu, 7-Iodo-7-deazaadenosine], binding at T. brucei PKAR(199–499) was characterised by a dissociation constant (Kd) of 32 ± 9 nM. Also, the “Thermodynamics (ITC) -TΔS” value on T. brucei PKAR(199–499) (independent replicates) is 6.36 and 3.65 and 4.67. Further, the “Thermodynamics (ITC) ΔG” value on T. brucei PKAR(199–499) (independent replicates) was -10.1 and -10.5. Further, the “Thermodynamics (ITC) ΔH” value on T. brucei PKAR(199–499) (independent replicates) was -16.5 and -14.1 and -14.8. Besides, the EC50 at T. brucei PKA was 390 ± 20 nM; in assay [2], 203 ± 79 nM. The IC50 amounted to 346 ± 41 nM in assay [1] and 330 ± 38 nM in the assay with T. brucei BSF cells (WT). The “In vitro kinase assay” value in assay [2] (0.001 µM) was 0.15 U/ml and 0.13 U/ml; in [2] (0.05 µM) it was 0.22 U/ml and 0.25 U/ml; in assay [2] (0.1 µM), 0.4 U/ml and 0.36 U/ml; in assay [2] (0.2 µM), 0.45 U/ml; in assay [2] (0.39 µM) it was 0.75 U/ml and 0.61 U/ml; in assay [2] (0.78 µM), 0.77 U/ml and 0.8 U/ml. Besides, the “In vitro kinase assay” value in assay [2] (1.56 µM) was 0.79 U/ml and 0.91 U/ml; in assay [2] (3.13 µM) it was 0.81 U/ml and 0.96 U/ml. For the same molecule, at human PKARIα, the “binding to purified human PKARIα, in words” value was “did not bind”.

For the molecule `COc1ccc(C2=NN(C3CCCCCC3)C(=O)[C@@H]3CC=CC[C@H]23)cc1OCCCCOc1ccc(-c2nn[nH]n2)cc1` [CpdA], the “increase of intracellular cAMP content” value with intracellular cAMP (10 µM, 15 min) is on record as “up to 600 fold”. The “pmol cAMP / 10^9 cells” value in the assay on intracellular cAMP (10 µM, 15 min) was 7046.18 pmol cAMP / 10^9 cells and 6980.91 pmol cAMP / 10^9 cells and 7465.44 pmol cAMP / 10^9 cells and 6294.38 pmol cAMP / 10^9 cells and 9321.55 pmol cAMP / 10^9 cells and 2818.14 pmol cAMP / 10^9 cells. Further, the “% cAMP, total, mean” value in the assay with intracellular cAMP (CpdA treatment 10 µM, 15 min, total cAMP content set to 100%, mean of technical replicates) worked out at 94.1035%. Also, in the assay on intracellular cAMP (CpdA treatment 10 µM, 15 min, total cAMP content set to 100%, technical replicates), the “% cAMP, total” value is 100% and 88.2071%. The “nM cAMP, total” value in the assay with intracellular cAMP (CpdA treatment 10 µM, 15 min, total, technical replicates) was 1891.66 nM and 1668.58 nM. Also, in assay [3] (mean of technical replicates), the “% cAMP, supernatant, mean” value is listed as 3.201%. Also, the “nM cAMP, supernatant” value in assay [3] (technical replicates) is 74.7051 nM and 46.4145 nM. For the same molecule, the “% cAMP, supernatant” value in assay [3] (total cAMP content set to 100%) was 3.949% and 2.454%. For the same molecule, the “% VASP phosphorylation” value is 37.2015% and 33.1548% and 30.9406% on T. brucei PKA (0 min); 28.9269% and 25.7882% and 23.4179% on T. brucei PKA (5 min); 28.8598% and 22.1225% and 21.1026% on T. brucei PKA (10 min); 26.7433% and 23.5931% and 18.9766% on T. brucei PKA (15 min). Besides, at T. brucei PKA, the “effect on in vivo PKA activity (VASP phosphorylation), in words” value is “did not elicit any change”.

For the molecule `OCCN(CCO)c1nc(N2CCCCC2)c2nc(N(CCO)CCO)nc(N3CCCCC3)c2n1` [Dipyridamole], the “change of intracellular cAMP content, in words” value in the assay on intracellular cAMP (100 µM) is on record as “moderate increase”. Besides, the “pmol cAMP / 10^9 cells” value in the assay on intracellular cAMP (100 µM, 15 min, listed as Dip) is 61.8873 pmol cAMP / 10^9 cells and 63.0147 pmol cAMP / 10^9 cells and 44.8294 pmol cAMP / 10^9 cells and 64.5236 pmol cAMP / 10^9 cells and 80.946 pmol cAMP / 10^9 cells and 55.0958 pmol cAMP / 10^9 cells; in the assay with intracellular cAMP (100 µM, 90 min, listed as Dip), 47.769 pmol cAMP / 10^9 cells and 56.3468 pmol cAMP / 10^9 cells and 59.8493 pmol cAMP / 10^9 cells and 40.4717 pmol cAMP / 10^9 cells and 46.5418 pmol cAMP / 10^9 cells and 46.5962 pmol cAMP / 10^9 cells. The “induction of VASP phosphorylation in pkar knock out, in words” value at T. brucei PKA (homozygous deletion of PKAR) is reported as “no induction”. Moreover, at T. brucei PKA, the EC50 worked out at 22400 ± 4200 nM. In addition, at T. brucei PKA, the “effect on in vivo PKA activity (VASP phosphorylation), in words” value is “dose- and time-dependent induction”. Further, the concentration for half-maximal inhibition (IC50) in assay [1] was determined as 16300 ± 1800 nM; in the assay on T. brucei BSF cells (WT), 9900 ± 1000 nM. Besides, in [2], the “effect in the in vitro kinase assay, in words” value is given as “did not have any effect; also recorded: No effect”.

For PKI(5–24), the “in vitro kinase assay [CPM], PKI” value was 1399.6 CPM in assay [4], 963.87 CPM in assay [5] (Supp Fig 3b), 528.13 CPM in assay [5] (Supp Fig 3c) and 483.2 CPM in assay [6]. Further, the “in vitro kinase assay [CPM]” value is on record as 1999.9 CPM in assay [5] (Ty1-PKAC1#1); 1386.5 CPM in assay [5] (Ty1-PKAC1#2); 834.7 CPM in assay [5] (Ty1-PKAC1-dead#11); 571.7 CPM in assay [5] (Ty1-PKAC1-dead#12); 1493.5 CPM in [5] (Ty1-PKAC1-dead#14); 398.6 CPM in [5] (pull down from WT cells (negative control)). For the same molecule, the “phosphorylation of kemptide, in words” value in assay [5] (5 µM inhibitor) is reported as “inhibited”.
